Measurements published in patent EP4541797A1, “CAMPTOTHECIN DERIVATIVE, METHOD FOR PREPARING SAME, AND USE THEREOF” (Hangzhou Adcoris Biopharma Co., Ltd, priority 2022, dated 2024).
Where two headings read alike, the source gives them in different places.

Tests used:
[1] = system: OE33 cells; assay: Inhibitory activity on cancer cell growth (CCK-8, 72 h), OE33 cells; format: cell-based; details: human esophageal cancer cells OE33, 72 h incubation
Method: (§1) Human esophageal cancer cells OE33, human breast adenocarcinoma cells SK-BR-3 and human gastric cancer cells NCI-N87 were cultured in RPMI1640 (Cellmax) supplemented with 10% fetal bovine serum (Cellmax) respectively. Cells in the exponential growth phase were diluted to a concentration of 1×10^5cells/mL by culture medium and added to 96-well cell culture plates at 100µL per well, then incubated overnight in a 37°C incubator with 5% CO2. On the following day, the test compounds and control compounds were diluted to concentrations of 10000 nM, 2000 nM, 400 nM, 80 nM, 16 nM, 3.2 nM, 0.64 nM, and 0.13 nM by culture medium and added to the 96-well cell culture plates at 2µL per well, with three replicate wells for each concentration. Negative control and blank control groups without the addition of compounds were supplemented with 2µL of the dilution liquid per well. After the addition of the compounds, the plates were returned to the 37°C incubator with 5% CO2 to continue incubation for 72 h. After incubation, the cell culture plates were removed, and the culture medium was aspirated using a pipette. Then, 100µL of culture medium containing 10% CCK-8 was added to each well, and the plates were incubated at 37°C for 3 h. After incubation, the plates were removed, kept in the dark, and placed in ELISA plate. Absorbance was measured at 630nm as the reference wavelength and 450nm as the test wavelength. The IC50 values (Tables 1-3) were calculated using the four-parameter logistic regression method in GraphPad, based on the absorbance values. SN38 (7-ethyl-10-hydroxycamptothecin) and 10CPT (10-hydroxycamptothecin) were used as control compounds. For the IC50 values, wherein "++++" indicates an IC50 < 50 nM; "+++" indicates an IC50 between 50 nM and 100 nM; "++" indicates an IC50 between 100 nM and 500 nM; and "+" indicates an IC50 > 500 nM. Table 1: Inhibitory activity of compounds to inhibit the growth of OE33 cells

[2] = system: SK-BR-3 cells; assay: Inhibitory activity on cancer cell growth (CCK-8, 72 h), SK-BR-3 cells; format: cell-based; details: human breast adenocarcinoma cells SK-BR-3, 72 h incubation
Method: as §1

[3] = Homo sapiens, OE33, 72 h, read-out: IC50
[4] = Homo sapiens, SK-BR-3, 72 h, read-out: IC50

## CC[C@@]1(O)C(=O)OCc2c1cc1n(c2=O)Cc2cc3c(CNCC4CCOCC4)c(O)ccc3nc2-1 [Compound 43, 9-(tetrahydropyran-4-methylamine)methyl-10-hydroxycamptothecin]
[1]; Homo sapiens, OE33, 72 h
  IC50: 100 to 500 nM

## CC[C@@]1(O)C(=O)OCc2c1cc1n(c2=O)Cc2cc3c4c(ccc3nc2-1)OCN(CC(F)(F)F)C4 [Compound 40, 3-(N-(2,2,2-trifluoroethyl))-1.3-oxazino[5,6][9,10]camptothecin]
[1]; [3]
  IC50: 100 to 500 nM

## CC[C@@]1(O)C(=O)OCc2c1cc1n(c2=O)Cc2cc3c(CN4CCC(N)CC4)c(O)ccc3nc2-1 [Compound 1, 9-(1-(4-aminopiperidine))methyl-10-hydroxycamptothecin]
[2]; [4]
  IC50: 50 to 100 nM
[1]; [3]
  IC50: 100 to 500 nM

## CC[C@@]1(O)C(=O)OCc2c1cc1n(c2=O)Cc2cc3c(CN(C)CCCN)c(O)ccc3nc2-1 [Compound 25, 9-(1-methyl-3-aminopropylamine)methyl-10-hydroxycamptothecin]
[1]; [3]
  IC50: 100 to 500 nM

## CC[C@@]1(O)C(=O)OCc2c1cc1n(c2=O)Cc2cc3c(CN[C@H]4CC[C@H](OC)CC4)c(O)ccc3nc2-1 [Compound 42, 9-(trans-4-methoxycyclohexylamine)methyl-10-hydroxycamptothecin]
[1]; [3]
  IC50: 100 to 500 nM

## CC[C@@]1(O)C(=O)OCc2c1cc1n(c2=O)Cc2cc3c(CN4CCC5(CCNCC5)CC4)c(O)ccc3nc2-1 [Compound 29, 9-(3-(undeca-5,5-spirocyclo-3,9-diazane))methyl-10-hydroxycamptothecin]
[1]; [3]
  IC50: 100 to 500 nM

## CC[C@@]1(O)C(=O)OCc2c1cc1n(c2=O)Cc2cc3c(CN4CCC[C@H]4C(=O)OC(C)(C)C)c(O)ccc3nc2-1 [Compound 31, 9-(L-prolinetert-butyl ester)methyl-10-hydroxycamptothecin]
[1]; [3]
  IC50: 100 to 500 nM

## CC[C@@]1(O)C(=O)OCc2c1cc1n(c2=O)Cc2cc3c(CNC(C)C)c(O)ccc3nc2-1 [Compound 21, 9-(isopropylamine)methyl-10-hydroxycamptothecin]
[2]; [4]
  IC50: 100 to 500 nM
[1]; [3]
  IC50: 100 to 500 nM

## CC[C@@]1(O)C(=O)OCc2c1cc1n(c2=O)Cc2cc3c(CNN4CCOCC4)c(O)ccc3nc2-1 [Compound 18, 9-(morpholin-4-amine)methyl-10-hydroxycamptothecin]
[2]; Homo sapiens, SK-BR-3, 72 h
  IC50: 50 to 100 nM
[1]; Homo sapiens, OE33, 72 h
  IC50: 100 to 500 nM

## CC[C@@]1(O)C(=O)OCc2c1cc1n(c2=O)Cc2cc3c(CN4CCC(C(N)=O)CC4)c(O)ccc3nc2-1 [Compound 8]
[2]; Homo sapiens, SK-BR-3, 72 h
  IC50: 100 to 500 nM
[1]; Homo sapiens, OE33, 72 h
  IC50: 100 to 500 nM

## CC[C@@]1(O)C(=O)OCc2c1cc1n(c2=O)Cc2cc3cc(O)ccc3nc2-1 [Compound 10CPT, 10-hydroxycamptothecin, reference compound]
[2]; Homo sapiens, SK-BR-3, 72 h
  IC50: < 50 nM
[1]; Homo sapiens, OE33, 72 h
  IC50: < 50 nM

## CC[C@@]1(O)C(=O)OCc2c1cc1n(c2=O)Cc2cc3c(CN4CCC(C(=O)O)CC4)c(O)ccc3nc2-1 [Compound 34, 9-(1-piperidine-4-carboxyllic acid)methyl-10-hydroxycamptothecin]
[1]; [3]
  IC50: > 500 nM

## CC[C@@]1(O)C(=O)OCc2c1cc1n(c2=O)Cc2cc3c(CN4CCN(C(=O)CO)CC4)c(O)ccc3nc2-1 [Compound 46, 9-(1-(4-hydroxyacetylpiperazine))methyl-10-hydroxycamptothecin]
[1]; Homo sapiens, OE33, 72 h
  IC50: 100 to 500 nM

## CCc1c2c(nc3ccc(O)cc13)-c1cc3c(c(=O)n1C2)COC(=O)[C@]3(O)CC [SN38, 7-ethyl-10-hydroxycamptothecin, reference compound]
[2]; read-out: IC50
  IC50: < 50 nM
[1]; read-out: IC50
  IC50: < 50 nM

## CC[C@@]1(O)C(=O)OCc2c1cc1n(c2=O)Cc2cc3c(CN4CCC(C(=O)OC)CC4)c(O)ccc3nc2-1 [Compound 33, 9-(1-piperidine-4-methylformate)methyl-10-hydroxycamptothecin]
[1]; [3]
  IC50: 100 to 500 nM

## CC[C@@]1(O)C(=O)OCc2c1cc1n(c2=O)Cc2cc3c(CNC4CCOCC4)c(O)ccc3nc2-1 [Compound 37, 9-(tetrahydropyran-4-amine)methyl-10-hydroxycamptothecin]
[1]; [3]
  IC50: 100 to 500 nM

## CC[C@@]1(O)C(=O)OCc2c1cc1n(c2=O)Cc2cc3c(CN4CCNCC4)c(O)ccc3nc2-1 [Compound 2, 9-(1-piperazine)methyl-10-hydroxycamptothecin]
[2]; Homo sapiens, SK-BR-3, 72 h
  IC50: 50 to 100 nM
[1]; Homo sapiens, OE33, 72 h
  IC50: 50 to 100 nM

## CC[C@@]1(O)C(=O)OCc2c1cc1n(c2=O)Cc2cc3c(CN4CCC(ON)CC4)c(O)ccc3nc2-1 [Compound 3, 9-(1-(4-aminoxypiperidine))methyl-10-hydroxycamptothecin]
[1]; [3]
  IC50: 100 to 500 nM

## CC[C@@]1(O)C(=O)OCc2c1cc1n(c2=O)Cc2cc3c(CN(C)C4CCOCC4)c(O)ccc3nc2-1 [Compound 14, 9-(N-methyltetrahydropyran-4-amine)methyl-10-hydroxycamptothecin]
[1]; Homo sapiens, OE33, 72 h
  IC50: 100 to 500 nM

## CC[C@@]1(O)C(=O)OCc2c1cc1n(c2=O)Cc2cc3c(CN(C)CC4CCNCC4)c(O)ccc3nc2-1 [Compound 28, 9-(N-methyl(piperidine-4-methyl)amine)methyl-10-hydroxycamptothecin]
[1]; Homo sapiens, OE33, 72 h
  IC50: 100 to 500 nM

## CC[C@@]1(O)C(=O)OCc2c1cc1n(c2=O)Cc2cc3c(CN[C@@H](C)C(=O)OC(C)(C)C)c(O)ccc3nc2-1 [Compound 35, 9-(L-alaninetert-butyl ester)methyl-10-hydroxycamptothecin]
[1]; [3]
  IC50: 50 to 100 nM

## CC[C@@]1(O)C(=O)OCc2c1cc1n(c2=O)Cc2cc3c(CN(C)CCCCN)c(O)ccc3nc2-1 [Compound 11, 9-(N-4-aminobutyl-N-methylamino)methyl-10-hydroxycamptothecin]
[2]; Homo sapiens, SK-BR-3, 72 h
  IC50: 100 to 500 nM
[1]; Homo sapiens, OE33, 72 h
  IC50: 100 to 500 nM

## CC[C@@]1(O)C(=O)OCc2c1cc1n(c2=O)Cc2cc3c(CN(C)CCO)c(O)ccc3nc2-1 [Compound 12, 9-(N-methylhydroxyethylamino)methyl-10-hydroxycamptothecin]
[2]; Homo sapiens, SK-BR-3, 72 h
  IC50: 100 to 500 nM
[1]; Homo sapiens, OE33, 72 h
  IC50: 100 to 500 nM

## CC[C@@]1(O)C(=O)OCc2c1cc1n(c2=O)Cc2cc3c(CN(C)[C@@H](C)C(=O)O)c(O)ccc3nc2-1 [Compound 36, 9-(N-methyl-L-alanine)methyl-10-hydroxycamptothecin]
[1]; [3]
  IC50: 100 to 500 nM

## CC[C@@]1(O)C(=O)OCc2c1cc1n(c2=O)Cc2cc3c(CN4CCN(C(=O)C5CC5)CC4)c(O)ccc3nc2-1 [Compound 6, 9-(1-(4-cyclopropylcarbonylpiperazine))methyl-10-hydroxycamptothecin]
[2]; Homo sapiens, SK-BR-3, 72 h
  IC50: 50 to 100 nM
[1]; Homo sapiens, OE33, 72 h
  IC50: 100 to 500 nM

## CC[C@@]1(O)C(=O)OCc2c1cc1n(c2=O)Cc2cc3c(CNCCC4CCNCC4)c(O)ccc3nc2-1 [Compound 30, 9-(piperidine-4-ethylamine)methyl-10-hydroxycamptothecin]
[1]; Homo sapiens, OE33, 72 h
  IC50: 100 to 500 nM

## CC[C@@]1(O)C(=O)OCc2c1cc1n(c2=O)Cc2cc3c4c(ccc3nc2-1)OCN(N1CCOCC1)C4 [Compound 22, 3-(N-morpholine)-1.3-oxazino[5,6][9,10]camptothecin]
[1]; [3]
  IC50: 100 to 500 nM

## CC[C@@]1(O)C(=O)OCc2c1cc1n(c2=O)Cc2cc3c(CN4CCN(C(C)=O)CC4)c(O)ccc3nc2-1 [Compound 7, 9-(1-(4-acetylpiperazine))methyl-10-hydroxycamptothecin]
[2]; [4]
  IC50: 50 to 100 nM
[1]; [3]
  IC50: 50 to 100 nM

## CC[C@@]1(O)C(=O)OCc2c1cc1n(c2=O)Cc2cc3c(CN4CCC(OC)CC4)c(O)ccc3nc2-1 [Compound 5, 9-(1-(4-methoxypiperidine))methyl-10-hydroxycamptothecin]
[2]; [4]
  IC50: > 500 nM
[1]; [3]
  IC50: 50 to 100 nM

## CC[C@@]1(O)C(=O)OCc2c1cc1n(c2=O)Cc2cc3c(CN(C)NC(=O)OC(C)(C)C)c(O)ccc3nc2-1 [Compound 23, 9-(1-methyl-2-Boc-hydrazine)methyl-10-hydroxycamptothecin]
[1]; [3]
  IC50: < 50 nM

## CC[C@@]1(O)C(=O)OCc2c1cc1n(c2=O)Cc2cc3c(CNN4CCCCC4)c(O)ccc3nc2-1 [Compound 26, 9-(piperidine-1-amine)methyl-10-hydroxycamptothecin]
[1]; [3]
  IC50: 100 to 500 nM

## CCNCc1c(O)ccc2nc3c(cc12)Cn1c-3cc2c(c1=O)COC(=O)[C@]2(O)CC [Compound 20, 9-(ethylamine)methyl-10-hydroxycamptothecin]
[1]; Homo sapiens, OE33, 72 h
  IC50: 100 to 500 nM

## CC[C@@]1(O)C(=O)OCc2c1cc1n(c2=O)Cc2cc3c(CN(C)CCN)c(O)ccc3nc2-1 [Compound 13, 9-(N-methyl-N-aminoethylamino)methyl-10-hydroxycamptothecin]
[1]; [3]
  IC50: 100 to 500 nM

## CC[C@@]1(O)C(=O)OCc2c1cc1n(c2=O)Cc2cc3c(CN(C)C4CCC(O)CC4)c(O)ccc3nc2-1 (stereo partly drawn) [Compound 16, 9-(N-methyl-trans-4-hydroxycyclohexylamine)methyl-10-hydroxycamptothecin]
[1]; Homo sapiens, OE33, 72 h, numeric value or bound, read-out: IC50
  IC50: 0.221 nM
